Values of other authors as cited in patent US10980856B2, “Composition and method for treating plantar fasciitis in humans” (priority 2017, dated 2021).

Assays:
[1] = system: human peripheral blood monocytes; conditions: after 40 hours
[2] = system: Balb/c mice injected with histamine; conditions: applied immediately after histamine injection

CC1=CC[C@@H](C(C)(C)O)CC1 [a-terpineol]
superoxide production by agonist-stimulated monocytes (monocytes): suppress

CC1=CCC(O)(C(C)C)CC1 (stereo not shown) [terpinen-4-ol]
inhibition of lipopolysaccharide-induced production of IL-10 [1]: 50% | inhibition of lipopolysaccharide-induced production of TNF-α [1]: 50% | inhibition of lipopolysaccharide-induced production of interleukin-1b (IL-1b) [1]: 50% | inhibition of lipopolysaccharide-induced production of prostaglandin E2 [1]: 30% | superoxide production by agonist-stimulated monocytes (monocytes): suppress | histamine-induced skin edema [2]: reduced
